Data as given in patent EP3002287B1, “Thiochromeno[2,3-c]quinolin-12-one derivatives and their use as topoisomerase inhibitors” (National Defense Medical Center, priority 2014, dated 2016).
pIC50: −log10 of the molar value.

Assays:
[1] = system: NCI/ADR-RES; test: NCI in vitro 60-cell drug screen (SRB assay); assay type: cell-based; settings: NCI/ADR-RES (Ovarian cancer); 10^-5 molar concentration; 48 hours
[2] = system: RXF 393; test: NCI in vitro 60-cell drug screen (SRB assay); assay type: cell-based; settings: RXF 393 (Renal cancer); 10^-5 molar concentration; 48 hours
[3] = system: OVCAR-3; test: NCI in vitro 60-cell drug screen (SRB assay); assay type: cell-based; settings: OVCAR-3 (Ovarian cancer); 10^-5 molar concentration; 48 hours
[4] = system: SNB-75; test: NCI in vitro 60-cell drug screen (SRB assay); assay type: cell-based; settings: SNB-75 (CNS cancer); 10^-5 molar concentration; 48 hours
[5] = system: OVCAR-5; test: NCI in vitro 60-cell drug screen (SRB assay); assay type: cell-based; settings: OVCAR-5 (Ovarian cancer); 10^-5 molar concentration; 48 hours
[6] = system: OVCAR-8; test: NCI in vitro 60-cell drug screen (SRB assay); assay type: cell-based; settings: OVCAR-8 (Ovarian cancer); 10^-5 molar concentration; 48 hours
[7] = system: EKVX; test: NCI in vitro 60-cell drug screen (SRB assay); assay type: cell-based; settings: EKVX (Non-small cell lung cancer); 10^-5 molar concentration; 48 hours
[8] = system: NCI-H522; test: NCI in vitro 60-cell drug screen (SRB assay); assay type: cell-based; settings: NCI-H522 (Non-small cell lung cancer); 10^-5 molar concentration; 48 hours
[9] = system: OVCAR-4; test: NCI in vitro 60-cell drug screen (SRB assay); assay type: cell-based; settings: OVCAR-4 (Ovarian cancer); 10^-5 molar concentration; 48 hours
[10] = system: DU-145; test: NCI in vitro 60-cell drug screen (SRB assay); assay type: cell-based; settings: DU-145 (Prostate cancer); 10^-5 molar concentration; 48 hours
[11] = system: PC-3; test: NCI in vitro 60-cell drug screen (SRB assay); assay type: cell-based; settings: PC-3 (Prostate cancer); 10^-5 molar concentration; 48 hours
[12] = system: SNB-19; test: NCI in vitro 60-cell drug screen (SRB assay); assay type: cell-based; settings: SNB-19 (CNS cancer); 10^-5 molar concentration; 48 hours
[13] = system: 786-0; test: NCI in vitro 60-cell drug screen (SRB assay); assay type: cell-based; settings: 786-0 (Renal cancer); 10^-5 molar concentration; 48 hours
[14] = system: PC-3; test: MTT assay for cell cytotoxicity; assay type: cell-based, human; settings: Homo sapiens, 72 h, at least three independent experiments, read-out: MTT assay (IC50 ± SD) PC-3
[15] = system: DU-145; test: MTT assay for cell cytotoxicity; assay type: cell-based, human; settings: Homo sapiens, 72 h, at least three independent experiments, read-out: MTT assay (IC50 ± SD) DU-145
In short: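 Seeded cells pre-incubated 24 h, then treated 72 h with 0.15–15 µM compound in RPMI-1640/5% FBS at 37 °C. MTT (1 mg/mL) added for 4 h, formazan dissolved in DMSO, absorbance at 560 nm; IC50 from mean of ≥3 independent experiments.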

[16] = system: RPMI-8226; test: NCI in vitro 60-cell drug screen (SRB assay); assay type: cell-based; settings: RPMI-8226 (Leukemia); 10^-5 molar concentration; 48 hours
[17] = system: SN12C; test: NCI in vitro 60-cell drug screen (SRB assay); assay type: cell-based; settings: SN12C (Renal cancer); 10^-5 molar concentration; 48 hours
[18] = system: HS 578T; test: NCI in vitro 60-cell drug screen (SRB assay); assay type: cell-based; settings: HS 578T (Breast cancer); 10^-5 molar concentration; 48 hours
[19] = system: SF-539; test: NCI in vitro 60-cell drug screen (SRB assay); assay type: cell-based; settings: SF-539 (CNS cancer); 10^-5 molar concentration; 48 hours
[20] = system: NCI-H460; test: NCI in vitro 60-cell drug screen (SRB assay); assay type: cell-based; settings: NCI-H460 (Non-small cell lung cancer); 10^-5 molar concentration; 48 hours
[21] = system: HL-60(TB); test: NCI in vitro 60-cell drug screen (SRB assay); assay type: cell-based; settings: HL-60(TB) (Leukemia); 10^-5 molar concentration; 48 hours
[22] = system: NCI-H23; test: NCI in vitro 60-cell drug screen (SRB assay); assay type: cell-based; settings: NCI-H23 (Non-small cell lung cancer); 10^-5 molar concentration; 48 hours
[23] = system: NCI-H226; test: NCI in vitro 60-cell drug screen (SRB assay); assay type: cell-based; settings: NCI-H226 (Non-small cell lung cancer); 10^-5 molar concentration; 48 hours
[24] = system: HT29; test: NCI in vitro 60-cell drug screen (SRB assay); assay type: cell-based; settings: HT29 (Colon cancer); 10^-5 molar concentration; 48 hours
[25] = system: LOX IMVI; test: NCI in vitro 60-cell drug screen (SRB assay); assay type: cell-based; settings: LOX IMVI (Melanoma); 10^-5 molar concentration; 48 hours
[26] = system: SK-OV-3; test: NCI in vitro 60-cell drug screen (SRB assay); assay type: cell-based; settings: SK-OV-3 (Ovarian cancer); 10^-5 molar concentration; 48 hours

Row | SMILES | Growth percent [1] [%] | Growth percent [2] [%] | Growth percent [3] [%] | Growth percent [4] [%] | Growth percent [5] [%] | Growth percent [6] [%] | Growth percent [8] [%] | Growth percent [9] [%] | Growth percent [10] [%] | Growth percent [11] [%] | Growth percent [12] [%] | Growth percent [13] [%] | pIC50 [14] | pIC50 [15] | Growth percent [16] [%] | Growth percent [17] [%] | Growth percent [18] [%] | Growth percent [19] [%] | Growth percent [20] [%] | Growth percent [21] [%] | other results
1 | O=C(O)c1c(Sc2ccc(Cl)cc2)c(O)nc2ccccc12 [Compound 2, 3-((4-Chlorophenyl)thio)-2-hydroxyquinoline-4-carboxylic acid] | 97.75 | 113.90 | 121.29 | 82.18 | 112.47 | 114.68 | 81.64 | 98.41 | 115.22 | 93.23 | 97.17 | 104.44 | < 4.82 | < 4.82 | 98.10 | 95.83 | 88.33 | 110.22 | 104.20 | 105.63 | Growth percent [7]: 89.47%; Growth percent [22]: 92.61%; Growth percent [23]: 105.64%; Growth percent [24]: 101.41%; Growth percent [25]: 90.46%
2 | O=c1c2cc(Cl)ccc2sc2c(N3CCN(Cc4ccccc4)CC3)nc3ccccc3c12 [Compound 11, 6-(4-Benzylpiperazin-1-yl)-10-chloro-12H-thiochromeno[2,3-c]q uinolin-12-one] | 98.31 | 100.71 | 101.69 | 82.62 | 111.92 | 98.54 | 96.69 | 102.43 | 111.61 | 89.12 | 95.52 | 105.57 | < 4.82 | < 4.82 | 96.63 | 97.70 | 76.42 | 108.56 | 95.57 | 100.96 | Growth percent [26]: 94.79%; Growth percent [22]: 89.94%; Growth percent [23]: 88.98%; Growth percent [24]: 102.71%; Growth percent [25]: 94.22%
3 | O=c1c2cc(Cl)ccc2sc2c(N3CCN(c4ccccc4)CC3)nc3ccccc3c12 [Compound 12, 10-Chloro-6-(4-phenylpiperazin-1-yl)-12H-thiochromeno[2,3-c] quinolin-12-one] | 100.81 | 107.68 | 109.63 | 94.73 | 108.10 | 90.34 | 93.50 | 94.29 | 111.15 | 90.66 | 105.57 | 101.58 | < 4.82 | < 4.82 | 99.93 | 102.66 | 85.20 | 100.06 | 103.24 | 113.79 | Growth percent [26]: 100.39%; Growth percent [22]: 93.80%; Growth percent [23]: 87.10%; Growth percent [24]: 99.94%; Growth percent [25]: 95.15%
4 | O=c1c2cc(Cl)ccc2sc2c(N3CCOCC3)nc3ccccc3c12 [Compound 13, 10-Chloro-6-morpholino-12H-thiochromeno[2,3-c]quinolin-12-one] | 98.16 | 108.61 | 96.54 | 76.88 | 95.97 | 83.66 | 89.60 | 96.75 | 110.81 | 79.80 | 99.37 | 99.31 | < 4.82 | < 4.82 | 89.54 | 96.81 | 83.27 | 82.38 | 99.28 | 93.38 | Growth percent [26]: 77.18%; Growth percent [22]: 95.21%; Growth percent [23]: 88.01%; Growth percent [24]: 83.73%; Growth percent [25]: 89.82%
